Two molecules from patent US5843916A, “Cyclic amp analogues, individually and in pairs, to inhibit neoplastic cell growth” (priority 1994, dated 1998) can be followed below.

The subject of one assay is cells. Kind of assay: Growth inhibition by 8-Cl-AMP. As to conditions: as high as 100 μM. The assay is classed as cell-based.
Assay [1] has as its system breast (MCF-7) and colon (LS-174T) cancer cell lines. Kind of assay: Growth inhibition of breast and colon cancer cells (Table 1). In kind it is cell-based, human. As to conditions: Homo sapiens. The method, then:
The compounds of the present invention were added using 100X concentrated stock solutions. At desired times, cell counts in duplicate were performed on a Coulter counter after harvesting the cells with gentle trypsinization. […] Cell counts were performed on each of three or more separate experiments, and the average values are expressed as percent growth inhibition as compared with untreated control cells. | ^a The values of percentage growth inhibition were determined from th | doseresponse curve experiments. Each value represents an average value an | range (in parentheses) obtained from three or more separate experiments. | The cell counts in duplicate were performed at day 3 and day 4 after two | treatments (day 0 and day 2) with analogs (seeding on day -1).

The test system of assay [2] is breast and colon cancer lines (MCF-7, T-47D, ZR-75-1, MCF-7ras, MDA-MB-231, BT-20, HBL-100, LS-174T, WiDr, HT-29). Kind of assay: Growth inhibition of breast and colon cancer lines (FIG. 1). In kind it is cell-based, human. The note with it: densitometry text.
Assay [3] deals with breast and colon cancer cells. Kind of assay: Effect on cell morphology (FIG. 2). In kind it is cell-based, human. The text has this: The photographs were taken on Day 4, ×160.
Furthermore, the synergistic growth inhibitory effect of C-6 and C-8 analogue combinations was also reflected in the change in the cell morphology.

Assay [4] deals with MDA-MB-231. Kind of assay: Cell cycle analysis by flow cytometry (Table 3). The note with it: 35 μM; 3 days. In kind it is cell-based, human. How it is done:
DNA histograms were generated on FACS II by using the DNA intercalating dye propidium iodide as described by Braylan et al. in Cytometry 2: 337-343, 1982. The percentage of cells in each cycle phase was calculated by using a PDP-11/34 computer and software as described by Neckers et al., Mol. Cell. Biol. 6: 4244-4250, 1986.
Breast (MCF-7, MDA-MB-231) and colon (LS-174T) cancer cells in log
phase (untreated control) and 3 days after treatment with 8-C1-cAMP
(10 μM), N^6 -benzyl-cAMP (35 μM), and 8-Cl-adenosine (5
were analyzed for DNA content by flow cytometric analysis as described
below. Similar results were obtained with other breast and colon cancer
(A flow cytometer gives signals particle by particle.)

Assay [5] relates to RI and RII cAMP receptor proteins, LS-174T. Kind of assay: Photoaffinity labelling of cAMP receptor proteins (Table 10, FIG. 6). As to conditions: 3 days, 8-Cl and N^6-benzyl 10 μM, dibutyryl 1 mM. The assay is classed as cell-based, human. How it is done: (§1) Photoactivated incorporation of 8-N3 [^32 P] was performed as described below.
(§2) M is marker proteins of known molecular weight.
(§3) Each lane contained 50 micrograms protein for SDS-PAGE.
(§4) The incubations were carried out at 23° C. for 60 minutes in 96-well immunoplates. The reaction mixtures were then irradiated for 30 seconds at 254 nm, placing a Mineralite UVS-11 hand lamp directly onto the plate. The samples were mixed with 25 microliters of 3× sample buffer (3% SDS, 15% beta-mercaptoethanol, 30 mM Tris, 30% glycerol, 1% bromophenol blue saturated solution), boiled for 3 minutes, and centrifuged at 700 × g for five minutes. The samples containing 10-30 micrograms of protein were subjected to 0.05% SDS-12% PAGE. The gels were fixed, dried, and exposed to X-ray films overnight. The protein concentrations were determined by the method of Lowry et al., J. Biol. Chem. 193: 265-275, 1951, with bovine serum albumin as standard.
(§5) The levels of the receptor proteins are expressed relative to the RI level in the untreated control cells of MDA-MB-231 and LS-174T which are each set equal to 1.0 O.D.; the scale was expanded to differentiate the lower intensity bands.

The subject of assay [6] is RI and RII cAMP receptor proteins, MDA-MB-231. The assay is described as above. As to conditions: 3 days, 8-Cl and N^6-benzyl 10 μM, dibutyryl 1 mM. In kind it is cell-based, human. How it is done:
as §1, §2, §3, §4, §5

The next assay deals with HL-60. Kind of assay: Growth inhibition of leukemic cells (Table 12). In kind it is cell-based. As to conditions: Homo sapiens.
The next assay has as its system Molt-4. Nature of the assay: Growth inhibition of leukemic cells (Table 12). As to conditions: Homo sapiens, MOLT-4; read-out: Inhibition of Growth IC50, Molt-4. In kind it is cell-based, human.
Another assay has as its system K-562. Kind of assay: Growth inhibition of leukemic cells (Table 12). The assay is classed as cell-based. As to conditions: Homo sapiens, K562.
The subject of another assay is myc-K562. Nature of the assay: Growth inhibition of leukemic cells (Table 12). In kind it is cell-based. The note with it: Homo sapiens.
The next assay concerns HL-60 Cells. Nature of the assay: Cell cycle kinetics of HL-60 cells (Table 17). The assay is classed as cell-based, human. The note with it: 10 μM, 96 hours. How it is done: Briefly, cells were fixed in 70% ethanol and stored at 4° C. before analysis. Nuclear DNA was stained with propidium iodide, 50 μg/ml in phosphate-buffered saline (pH 7.4), for 30 minutes at room temperature. RNase was added to avoid double-helix RNA staining. The DNA content of cells was analyzed by a FACScan flow cytometer coupled with a Hewlett-Packard computer. Cell cycle data analysis was performed by a Cell-FIT program according to the method of Dean (Cell Tissue Kinet. 13: 299-308 (1980)) (Becton Dickinson Immunocytometry Systems). Pulse area versus pulse width gating was performed to exclude doublets from the G2 -M region. For each sample, 20,000 events were stored in list mode. Cell surface antigen analysis was performed by flow cytometry with FACScan using a panel of monoclonal antibodies reactive with either monocytic or myeloid cells.

Assay [7] concerns RI and RII cAMP receptor proteins, breast (MDA-MB-231) and colon (LS-174T) cancer cells. Kind of assay: cAMP receptor protein levels, breast and colon cancer cells (FIG. 6). In kind it is cell-based, human. The method, then: as §1, §2
The incubations were carried out at 23° C. for 60 minutes in 96-well immunoplates. […] The gels were fixed, dried, and exposed to X-ray films overnight.

Assay [8] has as its system MDA-MB-231. Nature of the assay: Growth of MDA-MB-231 cells (Tables 3, 10). The assay is classed as cell-based. The note with it: Homo sapiens, MDA-MB-231, 72 h, 3 days, control 100 (Table 3). How it is done: All breast cancer cell lines were grown in IMEM supplemented with 10% fetal bovine serum, HEPES 20 mM, penicillin-streptomycin, and extra glutamine. Colon carcinoma cell lines were grown in EMEM supplemented with 10% FBS, EMEM, NEAA, HEPES 20 mM, extra glutamine, and penicillin-streptomycin. The cells were grown at 37° C. in humidified incubators in an atmosphere of 5% CO2.
For cell growth experiments, 2-3×10^5 cells/60 mm dish were seeded, and 24 hours later (Day 0), the medium was removed, and fresh medium and the additives were added then and every 48 hours thereafter. The compounds of the present invention were added using 100X concentrated stock solutions. At desired times, cell counts in duplicate were performed on a Coulter counter after harvesting the cells with gentle trypsinization.

Assay [9] has as its system four leukemic cell lines (HL-60, K-562, myc-K562, Molt-4). Nature of the assay: Growth inhibition of leukemic cell lines. In kind it is cell-based, human. The note with it: Homo sapiens; leukemic cell lines, range.

Molecules are shown by their SMILES. Like-named read-outs stand apart in the source and are kept apart here.

Turning to `Nc1ncnc2c1nc(Cl)n2[C@@H]1O[C@H](COP(=O)(O)O)[C@@H](O)[C@H]1O` [8-Cl-AMP], the “growth inhibition” value in the assay on cells was “no appreciable growth inhibition”.
Turning to `O=P1(O)OC[C@H]2O[C@@H](n3cnc4c(NCc5ccccc5)ncnc43)[C@H](O)[C@@H]2O1` [N^6 -benzyl-cAMP], the inhibition – broadly, the drop in the measured response relative to a control, in per cent – at 50 µM was 56% in assay [1] (72 h, 50 μM, day 3, average (range), read-out: % Growth Inhibition, Day 3); 70% in assay [1] (96 h, 50 μM, day 4, average (range), read-out: % Growth Inhibition, Day 4); 30 to 70% in assay [1] (50 micromolar, read-out: growth inhibition). Also, the “growth inhibition of cancer lines” value in assay [2] was 45-70%. Moreover, the cell morphology entry is “did not induce a change in the cell morphology” in assay [3] (0.5 μM alone, four days) and “induced the morphological change” in [3] (50 μM, three to four days). Further, the “% Cell Population in G1” value in the assay with MDA-MB-231 [4] stood at 60%. Moreover, the “% Cell Population in G2M” value in the assay on MDA-MB-231 [4] is reported as 15%. Further, the “% Cell Population in S” value in the assay with MDA-MB-231 [4] was determined as 25%. Also, the “cell cycle phase distribution” value with MDA-MB-231 [4] was “not appreciably different”. Moreover, the RII/RI in assay [5] stood at 1.25; in assay [6], 0.28. For the same molecule, the “relative level of RI” value is 0.20 ± 0.02 in assay [5] (control RI = 1.0 O.D.) and 0.25 ± 0.03 in assay [6] (control RI = 1.0 O.D.). Also, the entries for the “relative level of RII” value in assay [5] (control RI = 1.0 O.D.) and in assay [6] (control RI = 1.0 O.D.) were 0.25 ± 0.02 and 0.07 ± 0.01, respectively. Moreover, the IC50 (in general, the concentration needed to halve the response being measured) with HL-60 was 20 µM; with Molt-4, 10 µM; in the assay with K-562, 27 µM; in the assay with myc-K562, 30 µM; in assay [9], 10 to 30 µM. Further, the “% G2 M” value in the assay with HL-60 Cells (control 8.3) is reported as 9.6%. For the same molecule, the “% G0-G1” value in the assay on HL-60 Cells (control 45.7) is reported as 44.4%. Besides, the “% S” value with HL-60 Cells (control 46) is given as 46%. Also, in [7] (densitometric tracings), the “decrease in the RI level” value was 70-80%. Besides, the “increase in the ratio of RII to RI” value in assay [7] (densitometric tracings) is “two- to three-fold increase”. For the same molecule, in assay [7] (three days, FIG. 6), the “RI and RII receptor levels” value is reported as “the cAMP receptor protein with a molecular weight of 52,000 increased appreciably with concomitant decrease of the 48,000 RI receptor protein”. The activity at 35 µM in the assay with MDA-MB-231 [8] was 45%.
